Laboratory results: PubChem BioAssay (NCI)
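Cells were grown in 96-well plates and exposed to each compound for 48 hours at five concentrations; endpoints were interpolated linearly between bracketing concentrations, or set to the highest concentration if not reached. At the GI50, growth is halved. At the TGI there is no net growth.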

Assays:
Test in all cases: inhibition of tumour cell growth, NCI panel, 48 h
[1] = test system: MCF7 breast
[2] = test system: CAKI-1 renal
[3] = test system: UACC-62 melanoma
[4] = test system: K-562 leukemia
[5] = test system: HCC-2998 colon
[6] = test system: M14 melanoma
[7] = test system: A549 NSCLC
[8] = test system: IGROV1 ovarian
[9] = test system: OVCAR-8 ovarian
[10] = test system: SK-MEL-28 melanoma
[11] = test system: MDA-N
[12] = test system: SK-MEL-5 melanoma
[13] = test system: RXF 393 renal
[14] = test system: RPMI-8226 leukemia
[15] = test system: KM12 colon
[16] = test system: COLO 205 colon
[17] = test system: SK-OV-3 ovarian
[18] = test system: MOLT-4 leukemia
[19] = test system: TK-10 renal
[20] = test system: SNB-75 CNS
[21] = test system: HOP-62 NSCLC
[22] = test system: MDA-MB-231 breast
[23] = test system: NCI-H23 lung
[24] = test system: EKVX NSCLC
[25] = test system: PC-3 prostate
[26] = test system: SF-268 CNS
[27] = test system: CCRF-CEM leukemia
[28] = test system: T-47D breast
[29] = test system: SR leukemia
[30] = test system: SW-620 colon
[31] = test system: HL-60(TB) leukemia
[32] = test system: 786-0 renal
[33] = test system: HCT-15 colon
[34] = test system: SK-MEL-2 melanoma
[35] = test system: MDA-MB-435
[36] = test system: HS 578T breast
[37] = test system: OVCAR-4 ovarian
[38] = test system: DU-145 prostate
[39] = test system: U251 CNS
[40] = test system: OVCAR-3 ovarian
[41] = test system: ACHN renal
[42] = test system: LOX IMVI melanoma
[43] = test system: SN12C renal
[44] = test system: MALME-3M melanoma
[45] = test system: OVCAR-5 ovarian
[46] = test system: NCI-H460 lung
[47] = test system: BT-549 breast
[48] = test system: SNB-19 CNS
[49] = test system: NCI-H522 lung
[50] = test system: SF-539 CNS
[51] = test system: HCT-116 colon
[52] = test system: UO-31 renal
[53] = test system: A498 renal
[54] = test system: NCI-H226 lung
[55] = test system: UACC-257 melanoma
[56] = test system: SF-295 CNS
[57] = test system: NCI/ADR-RES ovarian
[58] = test system: HOP-92 NSCLC
[59] = test system: HT29 colon

CC(=O)OC[C@]12CCC3[C@@]4(C)CCCC(C)(C)C4CC[C@@]3(C)C1CC(C1=CC(=O)OC1O)O2 (stereo partly drawn)
TGI [1]: 2.97 µM | TGI [2]: 3.11 µM | TGI [3]: 3.65 µM | TGI [4]: 9.56 µM | TGI [5]: 2.83 µM | TGI [6]: 3.07 µM | TGI [7]: 5.05 µM | TGI [8]: 2.95 µM | TGI [9]: 3.52 µM | TGI [10]: 2.19 µM | TGI [11]: 2.42 µM | TGI [12]: 2.85 µM | TGI [13]: 1550 nM | TGI [14]: 0.761 µM | TGI [15]: 3.62 µM | TGI [16]: 5.67 µM | TGI [17]: 4.04 µM | TGI [18]: 0.633 µM | TGI [19]: 3.2 µM | TGI [20]: 3.91 µM | TGI [21]: 3.9 µM | TGI [22]: 3.12 µM | TGI [23]: 3.8 µM | TGI [24]: 6.51 µM | TGI [25]: 2.68 µM | TGI [26]: 4.88 µM | TGI [27]: 0.982 µM | TGI [28]: 3.79 µM | TGI [29]: 0.868 µM | TGI [30]: 1.85 µM | TGI [31]: 2.66 µM | TGI [32]: 1830 nM | TGI [33]: 1.98 µM

CN1CCN(Cc2ccc(NC(=O)c3[nH]ncc3Nc3cc(OC4CCCC4)ncn3)cc2)CC1
GI50 [34]: 3.75 µM | TGI [34]: 15.3 µM | GI50 [1]: 1590 nM | TGI [1]: 4.96 µM | GI50 [2]: 366 nM | TGI [2]: 9.11 µM | GI50 [35]: 1840 nM | TGI [35]: 8.32 µM | GI50 [3]: 3.44 µM | TGI [3]: 11.1 µM | GI50 [4]: 1640 nM | TGI [4]: 13.3 µM | GI50 [5]: 3.1 µM | TGI [5]: 10.5 µM | GI50 [36]: 2200 nM | TGI [36]: 30 µM | GI50 [37]: 2070 nM | TGI [37]: 7.18 µM | GI50 [38]: 2350 nM | TGI [38]: 12.9 µM | GI50 [39]: 3.38 µM | TGI [39]: 12.7 µM | GI50 [40]: 1770 nM | TGI [40]: 3.69 µM | GI50 [41]: 1090 nM | TGI [41]: 3.1 µM | GI50 [42]: 1630 nM | TGI [42]: 3.83 µM | GI50 [6]: 1350 nM | TGI [6]: 3.62 µM | GI50 [43]: 3.37 µM | TGI [43]: 13.8 µM | GI50 [44]: 2050 nM | TGI [44]: 5.43 µM | GI50 [7]: 2110 nM | TGI [7]: 10.5 µM | GI50 [45]: 2790 nM | TGI [45]: 7.12 µM | GI50 [46]: 1610 nM | TGI [46]: 5.97 µM | GI50 [8]: 1750 nM | TGI [8]: 10.8 µM | GI50 [47]: 1750 nM | TGI [47]: 3.97 µM | GI50 [9]: 4.95 µM | TGI [9]: 26.9 µM | GI50 [48]: 4.74 µM | TGI [48]: 15.7 µM | GI50 [10]: 1780 nM | TGI [10]: 3.87 µM | GI50 [12]: 1440 nM | TGI [12]: 4.07 µM | GI50 [49]: 2150 nM | TGI [49]: 7.91 µM | GI50 [13]: 1360 nM | TGI [13]: 2910 nM | GI50 [14]: 2940 nM | TGI [14]: 6.71 µM | GI50 [15]: 2180 nM | TGI [15]: 6.19 µM | GI50 [50]: 1900 nM | TGI [50]: 5020 nM | GI50 [16]: 1240 nM | TGI [16]: 3.11 µM | GI50 [17]: 1280 nM | TGI [17]: 4.36 µM | GI50 [51]: 755 nM | TGI [51]: 11 µM | GI50 [52]: 1400 nM | TGI [52]: 11.2 µM | GI50 [18]: 2160 nM | TGI [18]: 8.66 µM | GI50 [53]: 6.37 µM | TGI [53]: 19.4 µM | GI50 [19]: 11 µM | TGI [19]: 23.7 µM | GI50 [54]: 2980 nM | TGI [54]: 10.8 µM | GI50 [20]: 3.53 µM | TGI [20]: 16.4 µM | GI50 [55]: 3.42 µM | TGI [55]: 9.6 µM | GI50 [56]: 2930 nM | TGI [56]: 12.5 µM | GI50 [21]: 3.7 µM | TGI [21]: 13.2 µM | GI50 [57]: 3.68 µM | TGI [57]: 15 µM | GI50 [58]: 6.69 µM | TGI [58]: 18.6 µM | GI50 [22]: 2640 nM | TGI [22]: 7.46 µM | GI50 [23]: 3.07 µM | TGI [23]: 14.4 µM | GI50 [24]: 3.86 µM | TGI [24]: 18.6 µM | GI50 [25]: 2260 nM | TGI [25]: 11.1 µM | GI50 [26]: 4.48 µM | TGI [26]: 19 µM | GI50 [27]: 2390 nM | TGI [27]: 11.2 µM | GI50 [28]: 5.06 µM | TGI [28]: 21.5 µM | GI50 [29]: 1030 nM | TGI [29]: 6.1 µM | GI50 [30]: 2660 nM | TGI [30]: 7.25 µM | GI50 [31]: 1770 nM | TGI [31]: 4.3 µM | GI50 [59]: 2530 nM | TGI [59]: 8.53 µM | GI50 [32]: 1350 nM | TGI [32]: 3100 nM | GI50 [33]: 1240 nM | TGI [33]: 11 µM

CC(=O)O[C@@H]1CN(S(=O)(=O)c2ccc(C)cc2)C[C@@H]1C1CCCCC1
TGI [34]: 32.2 µM | TGI [1]: 42.1 µM | TGI [2]: 45.6 µM | TGI [35]: 44.6 µM | TGI [3]: 33.4 µM | TGI [4]: > 100 µM | TGI [5]: > 100 µM | TGI [36]: 23.7 µM | TGI [37]: > 100 µM | TGI [38]: > 100 µM | TGI [39]: 37.2 µM | TGI [40]: 28.2 µM | TGI [41]: > 100 µM | TGI [42]: 64 µM | TGI [6]: 29.3 µM | TGI [45]: > 100 µM | TGI [46]: > 100 µM | TGI [8]: 38.6 µM | TGI [9]: 69.6 µM | TGI [48]: > 100 µM | TGI [10]: 34.3 µM | TGI [11]: 54.7 µM | TGI [12]: 45.8 µM | TGI [14]: 67.7 µM | TGI [15]: 29.8 µM | TGI [50]: 609 nM | TGI [16]: 46.5 µM | TGI [17]: > 100 µM | TGI [52]: > 100 µM | TGI [18]: 65.3 µM | TGI [53]: 55.1 µM | TGI [19]: 41.4 µM | TGI [54]: 34.6 µM | TGI [20]: 44.4 µM | TGI [55]: 35.7 µM | TGI [56]: > 100 µM | TGI [21]: 66.7 µM | TGI [57]: 53.3 µM | TGI [58]: 33.8 µM | TGI [23]: > 100 µM | TGI [24]: 58.6 µM | TGI [25]: 46.4 µM | TGI [26]: 52.5 µM | TGI [27]: > 100 µM | TGI [28]: > 100 µM | TGI [29]: > 100 µM | TGI [30]: 41.3 µM | TGI [59]: 74 µM | TGI [33]: > 100 µM
